Test results reported in patent US20050239656A1, “Pyridine compounds or salts thereof and herbicides containing the same” (priority 2002, published 2005).

How the values were obtained:
[1] = tested on: soybean; experiment: Test Example 2: soil surface treatment, upland pot test; format: in vivo, Glycine max Merr.
Outline: (§1)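 A pre-emergence soil application: formulated compound at a predetermined active-ingredient dose, diluted in water to 1,500 L/ha, sprayed on upland soil a day after seeding in 1/170,000 ha pots; growth control rated visually, 0 (untreated level) to 100 (kill), at 20–28 days.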

[2] = tested on: corn; experiment: as above; format: in vivo, Zea mays L.
Outline: as §1

[3] = tested on: rice; experiment: as above; format: in vivo, Oryza sativa L.
Outline: as §1

[4] = tested on: velvetleaf; experiment: as above; format: in vivo, Abutilon theophrasti MEDIC.
Outline: as §1

[5] = tested on: redroot pigweed; experiment: as above; format: in vivo, Amaranthus retroflexus L.
Outline: as §1

[6] = tested on: wheat; experiment: as above; format: in vivo, Triticum spp.; conditions: observed 20th to 28th day
Excerpt: Upland field soil was put into a 1/170,000 ha pot, and seed of various plants (barnyardgrass, crabgrass, green foxtail, redroot pigweed, prickly sida, velvetleaf, rice, wheat, corn, soybean) were sown. On the 1st day after the sowing, a wettable powder or emulsifiable concentrate having the compound of the present invention formulated in accordance with a usual formulation method, was weighed so that the active ingredient would be a predetermined amount, and diluted with water in an amount of 1,500 L/ha. The herbicide thus adjusted was applied by a small size sprayer for soil surface treatment. On the 20th to 28th days after the application of the herbicide, the growth of the respective plants was visually observed, and the herbicidal effects were evaluated by the growth controlling degrees (%) ranging from 0 (equivalent to the non-treated plot) to 100 (complete kill), whereby the results shown in Table 4, were obtained.

[7] = tested on: green foxtail; experiment: as above; format: in vivo, Setaria viridis L.
Outline: as §1

[8] = tested on: prickly sida; experiment: as above; format: in vivo, Sida spinosa L.
Outline: as §1

[9] = tested on: barnyardgrass; experiment: as above; format: in vivo, Echinochloa crus-galli L.
Outline: as §1

[10] = tested on: crabgrass; experiment: as above; format: in vivo, Digitaria sanguinalis L.
Outline: as §1

[11] = tested on: rice (var. Nihonbare); experiment: Test Example 3: paddy pot test, transplanted rice; format: in vivo, Oryza sativa L.; conditions: active ingredient 250 g/ha, applied 4th day after transplantation, visually observed 21st day after application, 0 = non-treated, 100 = complete kill
Outline: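 Visual crop-injury rating (0 = as untreated, 100 = complete kill, %) taken 21 days post-application. Treatment: formulated compound, water-diluted, pipetted into 3–4 cm flood water at a preset active-ingredient dose, 4 days after transplanting 2-leaf Nihonbare rice 3 cm deep in puddled paddy soil.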

[12] = tested on: barnyardgrass; experiment: Test Example 3: paddy pot test, application under submerged conditions; format: in vivo, Echinochloa crus-galli L.; conditions: active ingredient 250 g/ha; submerged application at 0.5 leaf stage; visually observed 14 days after application; 0 = non-treated, 100 = complete kill
Outline: (§2)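 Paddy soil pots; seeds sown, lightly covered; flooded 0.5–1 cm in greenhouse; wapato tubers planted day 1–2; flood raised to 3–4 cm. Submerged pipette application at 0.5 leaf / primary leaf stage. Visual score day 14, 0–100%.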

[13] = tested on: japanese bulrush; experiment: as above; format: in vivo, Scirpus juncoides; conditions: active ingredient 250 g/ha; submerged application at 0.5 leaf stage; visually observed 14 days after application; 0 = non-treated, 100 = complete kill
Outline: as §2

[14] = tested on: japanese ribbon wapato; experiment: as above; format: in vivo, Sagittaria pygniaea; conditions: active ingredient 250 g/ha; submerged application at primary leaf stage; visually observed 14 days after application; 0 = non-treated, 100 = complete kill
Outline: as §2

[15] = tested on: crabgrass; experiment: Test Example 1: foliage treatment, upland pot test; format: in vivo, Digitaria sanguinalis L.; conditions: active ingredient 500 g/ha, observed 18th to 23rd day, 0 = non-treated, 100 = complete kill
[16] = tested on: green foxtail; experiment: Test Example 1: foliage treatment, upland pot test; format: in vivo, Setaria viridis L.; conditions: active ingredient 500 g/ha, observed 18th to 23rd day, 0 = non-treated, 100 = complete kill
[17] = tested on: redroot pigweed; experiment: Test Example 1: foliage treatment, upland pot test; format: in vivo, Amaranthus retroflexus L.; conditions: active ingredient 500 g/ha, observed 18th to 23rd day, 0 = non-treated, 100 = complete kill
[18] = tested on: soybean; experiment: Test Example 1: foliage treatment, upland pot test; format: in vivo, Glycine max Merr.; conditions: crop, active ingredient 500 g/ha, observed 18th to 23rd day, 0 = non-treated, 100 = complete kill
Outline: (§3)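 Visual growth-control scores (0 = untreated, 100 = complete kill) were taken 18–23 days after foliar spraying of a wettable powder or emulsifiable concentrate, diluted in 500 L/ha water with 0.1% (v/v) spreader. Treatment leaf stages: barnyardgrass 1.3–2.8, rice 1.2–2.6, wheat 1.3–2.4, soybean 0.1–0.4.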

[19] = tested on: velvetleaf; experiment: Test Example 1: foliage treatment, upland pot test; format: in vivo, Abutilon theophrasti MEDIC.; conditions: active ingredient 500 g/ha, observed 18th to 23rd day, 0 = non-treated, 100 = complete kill
[20] = tested on: prickly sida; experiment: Test Example 1: foliage treatment, upland pot test; format: in vivo, Sida spinosa L.; conditions: active ingredient 500 g/ha, observed 18th to 23rd day, 0 = non-treated, 100 = complete kill
[21] = tested on: corn; experiment: Test Example 1: foliage treatment, upland pot test; format: in vivo, Zea mays L.; conditions: crop, active ingredient 500 g/ha, observed 18th to 23rd day, 0 = non-treated, 100 = complete kill
Outline: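 Corn seeds were sown in upland field soil held in a 1/170,000 ha pot and grown to the 2.1 to 3.2 leaf stage. A wettable powder or emulsifiable concentrate of the test compound was diluted with water at 500 L/ha, given 0.1% (v/v) agricultural spreader, and sprayed onto the foliage with a small sprayer. Growth controlling degree (%) was scored visually 18th to 23rd days later, from 0 (non-treated) to 100 (complete kill).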

[22] = tested on: rice; experiment: Test Example 1: foliage treatment, upland pot test; format: in vivo, Oryza sativa L.; conditions: crop, active ingredient 500 g/ha, observed 18th to 23rd day, 0 = non-treated, 100 = complete kill
Outline: as §3

[23] = tested on: barnyardgrass; experiment: Test Example 1: foliage treatment, upland pot test; format: in vivo, Echinochloa crus-galli L.; conditions: active ingredient 500 g/ha, observed 18th to 23rd day, 0 = non-treated, 100 = complete kill
Outline: as §3

[24] = active ingredient 500 g/ha, observed 20th to 28th day
[25] = active ingredient 250 g/ha, observed 20th to 28th day
[26] = active ingredient 500 g/ha, observed day 21, 0 = non-treated, 100 = complete kill

SMILES	Growth controlling degree (%) Rice [11] [%]	Growth controlling degree (%) Barnyardgrass [12] [%]	Growth controlling degree (%) Japanese bulrush [13] [%]	Growth controlling degree (%) Japanese ribbon wapato [14] [%]	Growth controlling degree (%) Crabgrass [15] [%]	Growth controlling degree (%) Green foxtail [16] [%]	Growth controlling degree (%) Soyabean [1, 26] [%]	Growth controlling degree (%) Corn [2, 26] [%]	Growth controlling degree (%) Rice [3, 26] [%]	Growth controlling degree (%) Velvetleaf [4, 26] [%]	Growth controlling degree (%) Redroot pigweed [5, 26] [%]	Growth controlling degree (%) Redroot pigweed [17] [%]	Growth controlling degree (%) Soybean [18] [%]	Growth controlling degree (%) Green foxtail [7, 26] [%]	Growth controlling degree (%) Prickly sida [8, 26] [%]	Growth controlling degree (%) Barnyardgrass [9, 26] [%]	Growth controlling degree (%) Velvetleaf [19] [%]	Growth controlling degree (%) Crabgrass [10, 26] [%]	Growth controlling degree (%) Prickly sida [20] [%]	Growth controlling degree (%) Corn [21] [%]	further results
CC(C)C(c1cnccc1C(F)(F)F)N(C)S(=O)(=O)c1ccccc1Cl (racemic) [Compound I-126]	–	–	–	–	–	–	–	–	–	–	–	–	–	–	–	–	–	–	–	–	Growth controlling degree (%) Soyabean [1, 24]: 0%; Growth controlling degree (%) Corn [2, 24]: 0%; Growth controlling degree (%) Rice [3, 24]: 20%; Growth controlling degree (%) Velvetleaf [4, 24]: 10%; Growth controlling degree (%) Redroot pigweed [5, 24]: 30%; Growth controlling degree (%) wheat ([6]; active ingredient 500 g/ha): 10%; Growth controlling degree (%) Green foxtail [7, 24]: 70%; Growth controlling degree (%) Prickly sida [8, 24]: 50%; Growth controlling degree (%) Barnyardgrass [9, 24]: 80%; Growth controlling degree (%) Crabgrass [10, 24]: 30%
CC(C)C(c1cnccc1C(F)(F)F)N(C)C(=O)Cc1ccc(Br)c(F)c1 (racemic) [Compound I-129]	0	100	90	–	–	–	–	–	–	–	–	–	–	–	–	–	–	–	–	–	Growth controlling degree (%) Soyabean [1, 24]: 10%; Growth controlling degree (%) Corn [2, 24]: 30%; Growth controlling degree (%) Rice [3, 24]: 30%; Growth controlling degree (%) Velvetleaf [4, 24]: 10%; Growth controlling degree (%) Redroot pigweed [5, 24]: 40%; Growth controlling degree (%) wheat ([6]; active ingredient 500 g/ha): 30%; Growth controlling degree (%) Green foxtail [7, 24]: 100%; Growth controlling degree (%) Prickly sida [8, 24]: 70%; Growth controlling degree (%) Barnyardgrass [9, 24]: 98%; Growth controlling degree (%) Crabgrass [10, 24]: 98%
CC(C)C(c1cnccc1C(F)(F)F)N(C)C(=O)Cc1ccc(Br)cc1F (racemic) [Compound I-137]	0	100	98	–	–	–	–	–	–	–	–	–	–	–	–	–	–	–	–	–	Growth controlling degree (%) Soyabean [1, 25]: 20%; Growth controlling degree (%) Corn [2, 25]: 10%; Growth controlling degree (%) Rice [3, 25]: 40%; Growth controlling degree (%) Velvetleaf [4, 25]: 50%; Growth controlling degree (%) Redroot pigweed [5, 25]: 50%; Growth controlling degree (%) wheat ([6]; active ingredient 250 g/ha): 30%; Growth controlling degree (%) Green foxtail [7, 25]: 100%; Growth controlling degree (%) Prickly sida [8, 25]: 50%; Growth controlling degree (%) Barnyardgrass [9, 25]: 98%; Growth controlling degree (%) Crabgrass [10, 25]: 98%
CCC(C)C(c1cnccc1C(F)(F)F)N(C)C(=O)COc1ccccc1 (stereo not drawn) [I-261]	20	100	95	70	60	60	20	20	20	50	70	50	80	100	98	90	50	100	60	10	Growth controlling degree (%) Rice [22]: 20%; Growth controlling degree (%) Barnyardgrass [23]: 70%
CCC(CC)C(c1cnccc1C(F)(F)F)N(C)C(=O)Cc1ccccc1 (stereo not drawn) [I-262]	0	98	95	30	80	70	20	40	50	60	70	70	80	95	90	20	90	100	95	60	Growth controlling degree (%) Rice [22]: 35%; Growth controlling degree (%) Barnyardgrass [23]: 80%
CCC(CC)C(c1cnccc1C(F)(F)F)N(C)C(=O)COc1ccccc1 (stereo not drawn) [I-263]	0	5	90	20	80	70	10	20	40	40	70	70	80	60	70	10	95	95	90	40	Growth controlling degree (%) Rice [22]: 60%; Growth controlling degree (%) Barnyardgrass [23]: 80%
